Assay results reported in the NIST ThermoML archive (doi:10.1021/je050440b).
± gives the expanded uncertainty stated by the source.

Test: activity coefficient (dimensionless); of the first substance listed, at infinite dilution; xn = mol fraction of the nth substance listed
Conditions: Liquid, Chromatography, x1 = 0

Which activity coefficient (306.75 K) does the source give for `C=CCCCCC` [1-heptene] + CCCC[N+](C)(C)C.O=S(=O)([N-]S(=O)(=O)C(F)(F)F)C(F)(F)F here?
The activity coefficient was 15.6 ± 1.1.

And the activity coefficient (311.95 K)?
The activity coefficient was 14.9 ± 1.

And the activity coefficient (322.55 K)?
Its activity coefficient is 13.9 ± 0.95.

And the activity coefficient (333.25 K)?
Its activity coefficient is 12.9 ± 0.88.

What about the activity coefficient (343.65 K) of the same compound?
The activity coefficient was 12 ± 0.82.

And the activity coefficient (354.05 K)?
The activity coefficient was 11.3 ± 0.77.

Which activity coefficient (343.75 K) does the source give for `C1COCCO1` [1,4-dioxane] + CCCC[N+](C)(C)C.O=S(=O)([N-]S(=O)(=O)C(F)(F)F)C(F)(F)F here?
Its activity coefficient is 0.74 ± 0.05.

What about the activity coefficient (354.25 K) of the same compound?
The activity coefficient was 0.73 ± 0.05.

For `C1=CCCC=C1` [1,3-cyclohexadiene] + CCCC[N+](C)(C)C.O=S(=O)([N-]S(=O)(=O)C(F)(F)F)C(F)(F)F, which activity coefficient (305.95 K) is on record?
The activity coefficient was 3.59 ± 0.24.

And the activity coefficient (322.55 K)?
Its activity coefficient is 3.37 ± 0.23.

And the activity coefficient (333.25 K)?
The activity coefficient was 3.18 ± 0.22.

And the activity coefficient (343.65 K)?
Its activity coefficient is 3.03 ± 0.21.

And the activity coefficient (354.15 K)?
The activity coefficient was 2.91 ± 0.2.

What about the activity coefficient (364.55 K) of the same compound?
The activity coefficient was 2.81 ± 0.19.

Which activity coefficient (302.55 K) does the source give for `CC(C)CO` [2-methyl-1-propanol] + CCCC[N+](C)(C)C.O=S(=O)([N-]S(=O)(=O)C(F)(F)F)C(F)(F)F here?
Its activity coefficient is 3.98 ± 0.27.

What about the activity coefficient (312.15 K) of the same compound?
The activity coefficient was 3.52 ± 0.24.

What about the activity coefficient (322.85 K) of the same compound?
Its activity coefficient is 3.13 ± 0.21.

What about the activity coefficient (333.35 K) of the same compound?
The activity coefficient was 2.72 ± 0.19.

And the activity coefficient (343.65 K)?
Its activity coefficient is 2.46 ± 0.17.

And the activity coefficient (354.05 K)?
Its activity coefficient is 2.23 ± 0.15.

Which activity coefficient (333.25 K) does the source give for `CCCCCCCCCCCC` [dodecane] + CCCC[N+](C)(C)C.O=S(=O)([N-]S(=O)(=O)C(F)(F)F)C(F)(F)F here?
Its activity coefficient is 128 ± 8.8.

What about the activity coefficient (343.65 K) of the same compound?
Its activity coefficient is 110 ± 7.5.

And the activity coefficient (354.05 K)?
Its activity coefficient is 92.3 ± 6.3.

With `CCCCO` [butan-1-ol] + CCCC[N+](C)(C)C.O=S(=O)([N-]S(=O)(=O)C(F)(F)F)C(F)(F)F as the compound, how does the activity coefficient (302.55 K) read?
The activity coefficient was 3.62 ± 0.25.

What about the activity coefficient (312.15 K) of the same compound?
Its activity coefficient is 3.22 ± 0.22.

And the activity coefficient (322.85 K)?
Its activity coefficient is 2.83 ± 0.19.

And the activity coefficient (333.35 K)?
The activity coefficient was 2.49 ± 0.17.

What about the activity coefficient (343.65 K) of the same compound?
The activity coefficient was 2.24 ± 0.15.

For `CCCCCCC(=O)OC` [methyl heptanoate] + CCCC[N+](C)(C)C.O=S(=O)([N-]S(=O)(=O)C(F)(F)F)C(F)(F)F, which activity coefficient (343.55 K) is on record?
The activity coefficient was 3.18 ± 0.22.

What about the activity coefficient (354.05 K) of the same compound?
The activity coefficient was 3.01 ± 0.2.

What about the activity coefficient (364.55 K) of the same compound?
Its activity coefficient is 2.81 ± 0.19.

And the activity coefficient (374.95 K)?
The activity coefficient was 2.64 ± 0.18.

What about the activity coefficient (385.45 K) of the same compound?
The activity coefficient was 2.43 ± 0.17.

Which results are given for `CCC(=O)OC` [methyl propanoate] + CCCC[N+](C)(C)C.O=S(=O)([N-]S(=O)(=O)C(F)(F)F)C(F)(F)F?
activity coefficient (311.65 K): 0.94 ± 0.06; activity coefficient (333.15 K): 0.92 ± 0.06; activity coefficient (343.75 K): 0.91 ± 0.06

With `CCCc1ccccc1` [propylbenzene] + CCCC[N+](C)(C)C.O=S(=O)([N-]S(=O)(=O)C(F)(F)F)C(F)(F)F as the compound, how does the activity coefficient (333.25 K) read?
The activity coefficient was 3.95 ± 0.27.

What about the activity coefficient (343.65 K) of the same compound?
Its activity coefficient is 3.86 ± 0.26.

What about the activity coefficient (354.05 K) of the same compound?
Its activity coefficient is 3.79 ± 0.26.

And the activity coefficient (364.45 K)?
The activity coefficient was 3.69 ± 0.25.

With `CCCC(=O)OC` [methyl butanoate] + CCCC[N+](C)(C)C.O=S(=O)([N-]S(=O)(=O)C(F)(F)F)C(F)(F)F as the compound, how does the activity coefficient (311.65 K) read?
Its activity coefficient is 1.31 ± 0.09.

What about the activity coefficient (333.15 K) of the same compound?
The activity coefficient was 1.26 ± 0.08.

And the activity coefficient (364.45 K)?
The activity coefficient was 1.2 ± 0.08.

With `C=CCCCCCCCC` [1-decene] + CCCC[N+](C)(C)C.O=S(=O)([N-]S(=O)(=O)C(F)(F)F)C(F)(F)F as the compound, how does the activity coefficient (306.15 K) read?
The activity coefficient was 50.4 ± 3.5.

What about the activity coefficient (311.95 K) of the same compound?
The activity coefficient was 47.8 ± 3.3.

And the activity coefficient (322.55 K)?
Its activity coefficient is 43.1 ± 3.

And the activity coefficient (333.25 K)?
Its activity coefficient is 39 ± 2.7.

What about the activity coefficient (343.65 K) of the same compound?
Its activity coefficient is 35.2 ± 2.4.

What about the activity coefficient (354.05 K) of the same compound?
The activity coefficient was 32.1 ± 2.2.

Which activity coefficient (301.85 K) does the source give for `C=CCCC` [1-pentene] + CCCC[N+](C)(C)C.O=S(=O)([N-]S(=O)(=O)C(F)(F)F)C(F)(F)F here?
The activity coefficient was 6.06 ± 0.41.

And the activity coefficient (312.35 K)?
Its activity coefficient is 5.79 ± 0.39.
